This is an account of results in article PMC10860144, “Exploring the Dispersion and Electrostatic Components in Arene–Arene Interactions between Ligands and G4 DNA to Develop G4-Ligands” (Journal of Medicinal Chemistry, 2024).

SMILES strings stand for the structures. Converted amounts (≈) assume the structure as drawn.

Data set [1] can be described thus: Intrinsic clearance in rat hepatocytes. The data set is classed as in vitro ADME. As for the experimental part:
(§1) All compounds (2–11, 25–29) were screened for their logD and solubility at pH 7.4 and for their intrinsic clearance in rat hepatocytes and human microsomes (Table S2). […] Replacing the basic amine side chain to a methyl substituent in the quinazolines (25–29) still retained good solubility (134 to over 1000 μM) but increased clearance in both rat hepatocytes and human microsomes. The logD was low for compounds with a basic amine side chain (2–11) and increased slightly when the amine was replaced with a methyl (25–29). As expected, additional substituents also affected the logD with the chloro-substituents increasing logD the most.
(§2) a Intrinsic clearance in rat hepatocytes ((μL/min)/10^6 cells).b Intrinsic clearance in human microsomes (μL/min/mg). […]

Data set [2] deals with Pu24T c-MYC G4 structure. Briefly: Kd for binding to the Pu24T c-MYC G4 structure (supplementary CSV). The arrangement: species or system human. As for the experimental part: (§3) 5′-Cy5 labeled G4 DNAs for this study were purchased from Eurofins Genomics. Stock solutions were prepared in water at 100 μM concentration. The sequences used are listed in Supporting Information Table S1. The G4 DNA sequences were folded in KCl buffer (10 mM phosphate, 100 mM KCl, pH 7.4) by heating at 95 °C for 5 min and then cooling to room temperature. All the experiments were performed in 10 mM phosphate pH 7.4, 100 mM KCl, and 0.05% Tween20. The labeled DNA concentration is held constant at 25 nM, and ligand concentration is varied depending on ligands Kd (16 1:3 dilutions). The samples were loaded into standard MST graded glass capillaries and initial fluorescence intensity of the capillary was measured using Monolith NT.115 (Nano Temper, Germany) with 20% LED power. The change in fluorescence with ligand’s concentrations were plotted in Excel and fitted through nonlinear equation to obtain the binding constants.
The Supporting Information is available free of charge at https://pubs.acs.org/doi/10.1021/acs.jmedchem.3c02127. • Experimental procedures and data; assay data, computational results, and all cell data; NMR (^1H and ^13C) spectra for all compounds (with the exception of a few intermediates); and HPLC UV traces for the final compounds (PDF) • Molecular formula strings and Kd values for binding to the Pu24T c-MYC G4 structure (CSV)

The subject of data set [3] is c-MYC Pu22 G4 DNA. As to the kind of experiment: FRET melting assay, c-MYC Pu22 G4 DNA. The note with it: c-MYC Pu22 G4 DNA; 5-40 equiv. The class given is binding, human. From the text: The synthesized compounds (2–11) were first analyzed using a Förster resonance energy transfer (FRET) assay (Figure 2A). This assay measures the compounds’ ability to affect the thermal stability of fluorescently labeled DNA, in this case, the c-MYC Pu22 G4 DNA (Table S1). […] The addition of one methyl group to the quinazoline core (3) provides almost twice as strong thermal stability compared to 2. The addition of a second methyl group (4) further increased stabilization, albeit modestly (by 0.5 °C). This slight increase between 3 and 4 could stem from the suboptimal positioning of the added methyl substituent in relation to the guanines on the G4 surface, compared to other positions on the quinazoline ring. […] Furthermore, the methyl-substituted (4) and the methoxy-substituted (6) display a similar G4 stabilization despite the strong electrostatic character of the methoxy substituent compared to the neutral methyl group, which further supports that these interactions are dispersion-driven. This conclusion is further supported by the fact that the replacement of the methoxy group in 6 with chlorine in 7 results in a very similar stabilization as 3, 4, and 6.
Synthetic labeled oligonucleotides for the FRET study were purchased from Eurofins Genomics. Stock solutions were prepared in MQ-water at 100 μM concentration. The sequences used are listed in Supporting Information Table S1. All the oligonucleotides except Pu22 were prefolded in 10 mM lithium cacodylate buffer (pH 7.4), with 10 mM KCl and 90 mM LiCl by heating for 10 min at 95 °C and then cooling in fridge for at least 1 h. Pu22 was folded in 10 mM lithium cacodylate buffer (pH 7.4), with 2 mM KCl and 98 mM LiCl.
The FRET occurs between two dyes (5′-FAM as donor and 3′-TAMRA as acceptor) linked at both extremities of a DNA oligonucleotide. When the oligonucleotides are folded into G4 structures, the donor and acceptor are in proximity, which results in an energy transfer from the donor to the acceptor. This process can be detected by a reduction in the fluorescence emission of the donor. Fluorescence emission of the donor is recovered when the temperature increment triggers the thermal denaturation of the G4 structure. The experiments were performed in a Bio-Rad CFX96 real-time PCR device at temperatures from 10 to 95 °C at 1.5 °C/m heating rate using a 492 nm excitation wavelength and a 516 nm detection wavelength in 96-well plates. […] The stabilization (ΔTm) is calculated from comparison of Tm of the fluorescently labeled oligonucleotide in the presence or absence of the ligand. […]
The fluorescence resonance energy transfer (FRET) occurs between two dyes (5'-FAM as donor and 3'- TAMRA as acceptor) linked at both extremities of a DNA oligonucleotide. […]

Data set [4] can be described thus: Intrinsic clearance in human microsomes. The class given is in vitro ADME. The following applies: read-out: Human mics: intrinsic clearance in human microsomes. As to the method:
as §1, §2

Data set [5] can be described thus: logD at pH 7.4. The class given is physicochemical. As for the experimental part: (§4) Physicochemical properties
(§5) The Physicochemical profiling (LogD, Solubility, Caco-2 cell permeability) was performed as previously
(§6) described.8 Cell viability was performed as described below.
(§7) Table S2. Pharmacokinetic Properties
(§8) Compound Structure logD, Solubility, Rat hepsa Human mics b

Data set [6] in a line: Solubility at pH 7.4. The class given is physicochemical. As for the experimental part:
as §4, §5, §6, §7, §8

The target in data set [7] is c-MYC Pu22 G4 DNA. As to the kind of experiment: Microscale thermophoresis (MST), c-MYC Pu22 G4 DNA. The class given is binding, human. The following applies: Cy5-labeled c-MYC Pu22 G4 DNA 25 nM; pH 7.4, 100 mM KCl; read-out: apparent Kd (MST). As to the method:
To evaluate the apparent binding affinities (Kd) for the compound series, we next used microscale thermophoresis (MST) with fluorescently labeled c-MYC Pu22 G4 DNA (Table S1). Overall, the measured MST binding results for compounds 2–11 corresponded well with the results from the FRET assay (Figures 2B and S3).
as §3, with “constants. […]” for “constants.”
Microscale Thermophoresis (MST)
5'- Cy5 labelled G4 DNAs for this study were purchased from Eurofins Genomics. Stock solutions were prepared in water at […] concentration. The sequences used are listed in supplementary Table S1. The G4 DNA sequences were folded in KCl buffer (10 mM phosphate, 100 mM KCl, pH 7.4) by heating at 95 °C for 5 min and then cooling to room temperature. All the experiments were performed in 10 mM phosphate pH 7.4, 100 mM KCl, 0.05% Tween20. The labelled DNA concentration is held constant at 25 nM and ligand concentration is varied depending on ligands Kd (sixteen 1:3 dilutions). The samples were loaded into standard MST graded glass capillaries and initial fluorescence intensity of the capillary were measured using Monolith NT.115 (Nano Temper, Germany) with 20% LED power. The change in fluorescence with ligand's concentrations were plotted in Excel and fitted through non-linear equation to obtain the binding constants.
(1 picture or pasted object on this page, not shown here)

In data set [8] the test system is G4 structure on DNA template (PEPu24T). As to the kind of experiment: Taq polymerase stop (primer extension) assay, G4 template. The data set is classed as biochemical. The note with it: compound 0.24 μM; compared to DMSO control. From the text: To challenge all the synthesized compounds (2–11 and 25–29) in a more intricate context, we conducted a Taq polymerase stop assay to evaluate their capacity to impede DNA synthesis through G4 stabilization. In this assay, we compared the progress of the Taq DNA polymerase along two distinct DNA templates: one with a G4 structure (Figure 5) and another serving as a non-G4 control (Figure S21). If an external species (e.g., G4 ligand) binds and stabilizes the G4 structure, the polymerase will be partially halted. The extent of this DNA polymerase stalling is dependent on the ability of the compound to stabilize the G4 on the DNA template. The increased G4 stabilization can be detected as a reduction in the amount of newly synthesized DNA that has reached the end of the DNA template (full-length/end-product). Analysis of these shorter terminated DNA products will give information about the precise location of the DNA polymerase stalling with a single nucleotide resolution. If the ligand imposes little to no stabilization or binding, the G4 is readily resolved by the DNA polymerase, and no difference in the amount of DNA end-product can therefore be expected upon the addition of the compound.
Templates for the primer extension assay were created by annealing 25 nt TET labeled primer (1 μM final concentration) to either PEPu24T or a mutated sequence not forming a G4, PEPu24T mut, (1.25 μM final concentration) in 100 mM KCl by heating to 95 °C for 5 min and slowly cooling to room temperature. […] Compounds were added in the indicated concentration and incubated on ice for 10 min before starting the reaction by adding dNTPs (100 μM final concentration) to the reaction and transferring it to 37 °C. Reactions were stopped after 15 min by addition of 10 μL of formamide loading buffer (0.5% SDS, 25 mM EDTA, 95% v/v formamide and xylene-cyanol). Samples were then loaded on a 12% polyacrylamide gel containing 7 M urea and 25% formamide and imaged using an Amersham Typhoon. The images were quantified using ImageJ 1.53e software, and the percentage of full-length product compared to a sample without compound was calculated.
Templates for the primer extension assay were created by annealing 25nt TET labelled primer (1 µM final concentration) to either PEPu24T or a mutated sequence not forming a G4, PEPu24T mut, (1.25 µM final concentration) in 100 mM KCl by heating to 95 °C for 5 min and slowly cooling to room temperature. The reaction mixture (10 µl) contained 1X Taq Buffer with KCl (10 mM Tris-HCl pH 8.8, 50 mM KCl, detergent), 25 mM MgCl2, […]
[…] Compounds were added in the indicated concentration and incubated on ice for 10 min before starting the reaction by adding dNTPs (100 µM final concentration) to the reaction and transferring it to 37 °C. Reactions were stopped after 15 min by addition of 10 µl of formamide loading buffer (0,5% SDS, 25 mM EDTA, 95% v/v formamide and xylene-cyanol). Samples were then loaded on a 12% polyacrylamide gel containing 7 M urea and 25% formamide and imaged using an Amersham™ Typhoon™.
The images were quantified using ImageJ 1.53e software and the percentage of full-length product compared to a sample without compound was calculated. […]

For orientation: logD means the decadic logarithm of the distribution of all forms, ionised or not, between an organic phase and buffer at a given pH. A low value points to a more hydrophilic compound. For orientation: solubility means how much of the substance goes into solution per volume. Consider `Cc1cc(NCCCN(C)C)nc(Nc2cnc3ccccc3n2)n1` [Compound 8, N4-(3-(Dimethylamino)propyl)-6-methyl-N2-(quinoxalin-2-yl)pyrimidine-2,4-diamine], for which the “Rat heps: intrinsic clearance in rat hepatocytes” value (shortened to “Rat heps: intrinsic clearance”) in data set [1] is on record as 38 (μL/min)/106 cells. In addition, the Kd in data set [2] and in data set [7] was more than 10000 nM in each case. Besides, the “ability to stabilize the G4 structure (in words)” value in data set [3] was “almost no ability to stabilize the G4 structure”. The microsomal CLint in data set [4] is 8 µL/min/mg. For the same compound, the logD in data set [5] was 1.4. Further, in data set [6], the solubility is more than 1000 µM.

Turning to `Cc1cc(NCCCN(C)C)nc(Nc2nc(C)c3cc(Cl)ccc3n2)n1` [Compound 7, N2-(6-Chloro-4-methylquinazolin-2-yl)-N4-(3-(dimethylamino)propyl)-6-methylpyrimidine-2,4-diamine], the “Rat heps: intrinsic clearance” value in data set [1] is 1 (μL/min)/106 cells. Besides, the Kd in data set [2] turned out to be 170 ± 20 nM; in data set [7], 170 nM. Besides, the microsomal CLint in data set [4] was less than 3 µL/min/mg. Further, the pH-dependent lipophilicity (logD) in data set [5] came out at 0.9. For the same compound, in data set [8], the “full-length DNA product” value is “about 30%”. This compound also showed a solubility in data set [6] of 990 µM (≈ 382 µg/mL).

Take `COc1ccc2nc(Nc3nc(C)cc(NCCCN(C)C)n3)nc(C)c2c1` [Compound 6, N4-(3-(Dimethylamino)propyl)-N2-(6-methoxy-4-methylquinazolin-2-yl)-6-methylpyrimidine-2,4-diamine]: in data set [1], the “Rat heps: intrinsic clearance” value was < 1 (μL/min)/106 cells. The values for the Kd in data set [2] and in data set [7] were 90 ± 10 nM and 90 nM, respectively. The microsomal CLint in data set [4] is less than 3 µL/min/mg. The compound also returned a logD in data set [5] of 0.1. For the same compound, the “full-length DNA product” value in data set [8] is reported as “about 30%”. Besides, the solubility in data set [6] is more than 1000 µM.
